Reference: BindingDB's records for doi:10.1021/jm025502x (2002)

Columns and labels:
[1] = In vitro inhibitory concentration against Methionyl-tRNA synthetase in a pyrophosphate exchange assay
[2] = molecular target: Methionyl-tRNA synthetase (Staphylococcus aureus); assay: In vitro inhibitory concentration against Staphylococcus aureus Methionyl-tRNA synthetase

| IC50 [1] [nM] | IC50 [2] [nM] | SMILES |
| --- | --- | --- |
| 500 | – | Oc1cc(NCCCNCc2ccc(Cl)c(Cl)c2)nc2ccccc12 [2-[3-(3,4-Dichloro-benzylamino)-propylamino]-1H-quinolin-4-one] |
| 1 | – | Oc1cc(NCCCNC2CCNc3c(Br)cc(Br)cc32)nc2ccccc12 (stereo not drawn) [2-[3-(6,8-Dibromo-1,2,3,4-tetrahydro-quinolin-4-ylamino)-propylamino]-1H-quinolin-4-one] |
| – | 12 | CCc1cc(I)c2c(c1)C(NCCCNc1cc(O)c3ccccc3n1)CCN2 (stereo not drawn) [2-[3-(6-Ethyl-8-iodo-1,2,3,4-tetrahydro-quinolin-4-ylamino)-propylamino]-1H-quinolin-4-one] |
